One data set has as its system HBeAg. Nature of the data set: In vitro anti-HBV activity: HBeAg production in HBV-infected 2.2.15 cells (RIA). It counts as cell-based, Hepatitis B virus (HBV). The conditions noted are these: for IC50: Hepatitis B virus, read-out: HBeAg IC50; for HBeAg SI: selectivity index. On the procedure: (§1) All compounds were evaluated for their anti-HBV activities, namely the ability to inhibit the replication of HBV DNA and the production of HBsAg and HBeAg in HBV-infected 2.2.15 cells.
(§2) The samples were dissolved in DMSO for appropriate concentrations, and then each was diluted 3-fold with culture medium. The 2.2.15 cells were planted into 96-well culture plates. […] The culture supernatants and 2.2.15 cells were collected respectively on the 8th plant day. The secretion concentrations of HBsAg and HBeAg in the culture supernatants were measured by RIA on SPRIA Kit for Detection of HBsAg and HBeAg (Beijing North Institute of Biological Technology), and the replication of HBV DNA was measured by dot hybridization with a^32PdCTP (FuRui Biological Technology Ltd., China).

For the next data set, the system named is 2.2.15 cells. As to the kind of experiment: Cytotoxicity (TC50) in 2.2.15 cells. It counts as cell-based.
The test system of another data set is HBV DNA. As to the kind of experiment: In vitro anti-HBV activity: replication of HBV DNA in 2.2.15 cells (dot hybridization). It counts as cell-based, Hepatitis B virus (HBV). The following applies: for IC50: Hepatitis B virus, read-out: DNA replication IC50; for DNA replication SI: selectivity index. The method in brief: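 HBV-producing 2.2.15 cells exposed to 3-fold serial dilutions of compound (DMSO stocks diluted in medium); cells and supernatants harvested on day 8. Intracellular HBV DNA replication quantified by dot hybridization with α-32P-dCTP probe; HBsAg/HBeAg in supernatant by RIA.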

Data set [1] has as its system influenza A virus, strain A/jifang/90-15. Nature of the data set: microbe, parasite or virus in culture. Format: cell-based. The conditions noted are these: for IC50: Influenza A virus, Influenza strain A/jifang/90-15, MDCK cells, CPE, Reed-Muench, read-out: IC50; for SI: Influenza strain A/jifang/90-15.
Data set [2] deals with Madin-Darby canine kidney (MDCK) cells.
The subject of the next data set is HBsAg. Nature of the data set: In vitro anti-HBV activity: HBsAg production in HBV-infected 2.2.15 cells (RIA). Format: cell-based, Hepatitis B virus (HBV). The conditions noted are these: for IC50: Hepatitis B virus, read-out: HBsAg IC50; for HBsAg SI: selectivity index. On the procedure:
as §1, §2

In brackets after ≈: the same amount, converted by molar mass. Counter-ions that a name gives are not always drawn.

What is called IC50 is the concentration that gives 50% inhibition.

Regarding `CCOC(=O)c1c(CS(=O)(=O)c2cccc(OC)c2)n(C)c2ccc(O)c(CN3CCCC3)c12` [Example 72, Ethyl 5-hydroxy-1-methyl-4-(1-pyrrolidinylmethyl)-2-[(3-methoxyphenyl)sulfonylmethyl]-1H-indole-3-carboxylate hydrochloride], in the data set with HBeAg, the IC50 was found to be 15.4 µg/mL and the “HBeAg SI” value amounted to 6.9. This compound returned a TC50 with 2.2.15 cells of 106.83 µg/mL. In addition, in the data set with HBV DNA, the half-inhibitory concentration (IC50) was 15.4 µg/mL and the “DNA replication SI” value is on record as 6.9.
For the compound `CCOC(=O)c1c(C[S+]([O-])Cc2ccccc2)n(C2CC2)c2cc(Br)c(O)c(Cn3ccnc3)c12` (stereo not drawn) [Example 126, Ethyl 6-bromo-1-cyclopropyl-5-hydroxy-4-[(1-imidazolyl)methyl]-2-(benzylsulfinylmethyl)-1H-indole-3-carboxylate], the values for the TC50 (with 2.2.15 cells; in data set [2]) were 35.61 µg/mL (≈ 64 µM) and 44.19 µg/mL (≈ 79.4 µM), respectively. In addition, the IC50 with HBV DNA was found to be 6.36 µg/mL (≈ 11.4 µM); in data set [1], 11.1 µg/mL (≈ 19.9 µM). In addition, the “DNA replication SI” value in the data set on HBV DNA was 5.60. The compound further came in with an SI in data set [1] of 4.0.
For `CCOC(=O)c1c(C[S+]([O-])Cc2cscn2)n(C2CC2)c2cc(Br)c(O)c(Cn3ccnc3)c12` (stereo not drawn) [Example 128, Ethyl 6-bromo-1-cyclopropyl-5-hydroxy-4-[(1-imidazolyl)methyl]-2-[(4-thiazolylmethyl)sulfinylmethyl]-1H-indole-3-carboxylate dihydrochloride], in the data set on HBeAg, the 50% inhibitory concentration (IC50) turned out to be 8.06 µg/mL and the “HBeAg SI” value is given as 6.63. This compound also gave a TC50 in the data set with 2.2.15 cells of 53.42 µg/mL. Besides, in the data set with HBsAg, the IC50 came out at 7.23 µg/mL and the “HBsAg SI” value is given as 7.39.
Turning to `CCOC(=O)c1c(CS(=O)(=O)C23CC4CC(CC(C4)C2)C3)n(C)c2cc(Br)c(O)c(Cn3ccnc3C)c12` [Example 179, Ethyl 6-bromo-5-hydroxy-1-methyl-4-[(2-methyl-1-imidazolyl)methyl]-2-[(1-adamantanyl)sulfonylmethyl]-1H-indole-3-carboxylate], in the data set with HBeAg, the IC50 is 1.91 µg/mL (≈ 3.16 µM) and the “HBeAg SI” value is listed as 5.60. Also, the TC50 with 2.2.15 cells was 10.69 µg/mL (≈ 17.7 µM). Further, in the data set with HBsAg, the half-maximal inhibitory concentration (IC50) amounted to 1.88 µg/mL (≈ 3.11 µM) and the “HBsAg SI” value was determined as 5.69.
Consider `CCOC(=O)c1c(C[S+]([O-])Cc2cscn2)n(C2CC2)c2cc(Br)c(O)c(Cn3ccnc3C)c12` (stereo not drawn) [Example 182, Ethyl 6-bromo-1-cyclopropyl-5-hydroxy-4-[(2-methyl-1-imidazolyl)methyl]-2-[(4-thiazolylmethyl)sulfinylmethyl]-1H-indole-3-carboxylate dihydrochloride], for which, in the data set on HBeAg, the IC50 is 7.69 µg/mL and the “HBeAg SI” value is on record as 8.34. The compound further returned a TC50 with 2.2.15 cells of 64.15 µg/mL. In addition, in the data set with HBsAg, the half-inhibitory concentration (IC50) turned out to be 4.66 µg/mL and the “HBsAg SI” value came out at 13.77.
As for `CCOC(=O)c1c(CSCc2ccc(F)cc2)n(C)c2cc(Br)c(O)c(Cn3cncn3)c12` [Example 187, Ethyl 6-bromo-5-hydroxy-1-methyl-4-[(1H-1,2,4-triazol-1-yl)methyl]-2-[(4-fluorobenzyl)thiomethyl]-1H-indole-3-carboxylate], in data set [1], the half-inhibitory concentration (IC50) amounted to 26.6 µg/mL (≈ 49.9 µM) and the SI is 1.66. Further, the TC50 in data set [2] worked out at 44.19 µg/mL (≈ 82.8 µM).
The like results for `CCOC(=O)c1c(CSCc2ccccc2)n(C2CC2)c2cc(Br)c(O)c(CNC(=N)N)c12` [Example 188, Ethyl 6-bromo-1-cyclopropyl-4-(guanidinylmethyl)-5-hydroxy-2-(benzylthiomethyl)-1H-indole-3-carboxylate] were, in that order, 9.85 µg/mL (≈ 18.5 µM), 4.0 and 39.37 µg/mL (≈ 74.1 µM).
Regarding `CCOC(=O)c1c(CSc2nc3ccccc3[nH]2)n(C)c2cc(Br)c(O)c(CNC(=N)N)c12` [Example 189, Ethyl 6-bromo-4-(guanidinylmethyl)-5-hydroxy-1-methyl-2-[(benzo[d]imidazol-2-yl)thiomethyl]-1H-indole-3-NL carboxylate], in the data set with HBeAg, the 50% inhibitory concentration (IC50) was 28 µg/mL (≈ 52.6 µM) and the “HBeAg SI” value came to 9.25. The TC50 in the data set on 2.2.15 cells turned out to be 258.69 µg/mL (≈ 487 µM). In the data set on HBsAg, the half-inhibitory concentration (IC50) amounted to 12.5 µg/mL (≈ 23.6 µM) and the “HBsAg SI” value stood at 20.66. In the data set with HBV DNA, the IC50 turned out to be 12.4 µg/mL (≈ 23.3 µM) and the “DNA replication SI” value came out at 20.91.

For the origin of these results see patent publication US7960427B2, “5-hydroxyindole-3-carboxylate derivatives and uses thereof” (priority 2004, dated 2011).
